Assay results taken from ChEMBL document CHEMBL5678807, “A selective jumonji H3K27 demethylase inhibitor modulates the proinflammatory macrophage response” (Nature, 2012).

Key:
[1] = Prodrug conversion in human primary macrophage lysates assessed as formation of GSK-J1 at 30 uM measured after 1 hr by RP LC-MS/MS analysis; type: ADME, subcellular
[2] = molecular target: T1, Lysine-specific demethylase 4A (Homo sapiens, UniProt O75164); assay: Inhibition of human JmjD2a by Alphascreen assay
[3] = molecular target: Lysine-specific demethylase 6A (Homo sapiens, UniProt O15550); assay: Inhibition of human UTX using Biotin-KAPRKQLATKAARK(me3)SAPATGG as substrate by MALDI-TOF analysis
Sequence of Lysine-specific demethylase 6A (O15550 whole entry): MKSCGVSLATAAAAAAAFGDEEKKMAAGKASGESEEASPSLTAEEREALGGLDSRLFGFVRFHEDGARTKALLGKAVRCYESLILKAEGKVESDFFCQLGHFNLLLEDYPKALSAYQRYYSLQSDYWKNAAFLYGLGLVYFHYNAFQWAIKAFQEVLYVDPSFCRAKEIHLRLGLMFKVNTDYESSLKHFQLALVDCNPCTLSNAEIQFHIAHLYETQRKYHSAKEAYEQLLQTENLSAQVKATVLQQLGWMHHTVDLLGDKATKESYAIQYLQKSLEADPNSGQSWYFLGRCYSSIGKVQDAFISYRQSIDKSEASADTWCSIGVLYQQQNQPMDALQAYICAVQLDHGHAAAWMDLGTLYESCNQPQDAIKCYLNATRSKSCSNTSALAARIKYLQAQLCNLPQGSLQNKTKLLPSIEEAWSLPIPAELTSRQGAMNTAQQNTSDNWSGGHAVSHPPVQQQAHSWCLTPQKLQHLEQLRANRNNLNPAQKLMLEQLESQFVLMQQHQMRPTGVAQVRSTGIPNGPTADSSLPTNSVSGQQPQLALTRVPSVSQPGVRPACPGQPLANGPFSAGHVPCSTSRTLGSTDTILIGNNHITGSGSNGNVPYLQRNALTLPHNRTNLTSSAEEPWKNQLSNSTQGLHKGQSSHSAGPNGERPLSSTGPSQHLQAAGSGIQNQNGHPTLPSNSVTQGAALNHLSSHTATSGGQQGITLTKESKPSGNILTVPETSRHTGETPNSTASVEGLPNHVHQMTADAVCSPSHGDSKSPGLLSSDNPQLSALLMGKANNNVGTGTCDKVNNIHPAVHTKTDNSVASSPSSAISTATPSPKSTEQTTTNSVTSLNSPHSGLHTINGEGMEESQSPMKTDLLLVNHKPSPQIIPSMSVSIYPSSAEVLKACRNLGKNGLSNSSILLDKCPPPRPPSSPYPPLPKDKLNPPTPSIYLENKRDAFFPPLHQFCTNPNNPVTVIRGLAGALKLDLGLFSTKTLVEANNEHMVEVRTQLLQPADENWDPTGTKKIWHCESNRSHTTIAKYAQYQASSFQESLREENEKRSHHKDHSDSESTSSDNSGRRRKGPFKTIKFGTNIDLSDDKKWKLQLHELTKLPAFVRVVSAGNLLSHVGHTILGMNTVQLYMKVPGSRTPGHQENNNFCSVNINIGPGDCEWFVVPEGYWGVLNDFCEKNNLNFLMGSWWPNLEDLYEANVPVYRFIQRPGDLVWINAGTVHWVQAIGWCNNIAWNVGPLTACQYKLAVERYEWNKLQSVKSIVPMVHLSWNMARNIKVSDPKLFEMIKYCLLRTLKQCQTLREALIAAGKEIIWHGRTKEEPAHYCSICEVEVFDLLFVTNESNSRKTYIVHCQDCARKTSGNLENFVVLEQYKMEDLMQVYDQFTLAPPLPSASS

[4] = molecular target: Lysine-specific demethylase 5C (Homo sapiens, UniProt P41229); assay: Inhibition of human Jarid1c by MALDI-TOF analysis
Sequence of Lysine-specific demethylase 5C (P41229 whole entry): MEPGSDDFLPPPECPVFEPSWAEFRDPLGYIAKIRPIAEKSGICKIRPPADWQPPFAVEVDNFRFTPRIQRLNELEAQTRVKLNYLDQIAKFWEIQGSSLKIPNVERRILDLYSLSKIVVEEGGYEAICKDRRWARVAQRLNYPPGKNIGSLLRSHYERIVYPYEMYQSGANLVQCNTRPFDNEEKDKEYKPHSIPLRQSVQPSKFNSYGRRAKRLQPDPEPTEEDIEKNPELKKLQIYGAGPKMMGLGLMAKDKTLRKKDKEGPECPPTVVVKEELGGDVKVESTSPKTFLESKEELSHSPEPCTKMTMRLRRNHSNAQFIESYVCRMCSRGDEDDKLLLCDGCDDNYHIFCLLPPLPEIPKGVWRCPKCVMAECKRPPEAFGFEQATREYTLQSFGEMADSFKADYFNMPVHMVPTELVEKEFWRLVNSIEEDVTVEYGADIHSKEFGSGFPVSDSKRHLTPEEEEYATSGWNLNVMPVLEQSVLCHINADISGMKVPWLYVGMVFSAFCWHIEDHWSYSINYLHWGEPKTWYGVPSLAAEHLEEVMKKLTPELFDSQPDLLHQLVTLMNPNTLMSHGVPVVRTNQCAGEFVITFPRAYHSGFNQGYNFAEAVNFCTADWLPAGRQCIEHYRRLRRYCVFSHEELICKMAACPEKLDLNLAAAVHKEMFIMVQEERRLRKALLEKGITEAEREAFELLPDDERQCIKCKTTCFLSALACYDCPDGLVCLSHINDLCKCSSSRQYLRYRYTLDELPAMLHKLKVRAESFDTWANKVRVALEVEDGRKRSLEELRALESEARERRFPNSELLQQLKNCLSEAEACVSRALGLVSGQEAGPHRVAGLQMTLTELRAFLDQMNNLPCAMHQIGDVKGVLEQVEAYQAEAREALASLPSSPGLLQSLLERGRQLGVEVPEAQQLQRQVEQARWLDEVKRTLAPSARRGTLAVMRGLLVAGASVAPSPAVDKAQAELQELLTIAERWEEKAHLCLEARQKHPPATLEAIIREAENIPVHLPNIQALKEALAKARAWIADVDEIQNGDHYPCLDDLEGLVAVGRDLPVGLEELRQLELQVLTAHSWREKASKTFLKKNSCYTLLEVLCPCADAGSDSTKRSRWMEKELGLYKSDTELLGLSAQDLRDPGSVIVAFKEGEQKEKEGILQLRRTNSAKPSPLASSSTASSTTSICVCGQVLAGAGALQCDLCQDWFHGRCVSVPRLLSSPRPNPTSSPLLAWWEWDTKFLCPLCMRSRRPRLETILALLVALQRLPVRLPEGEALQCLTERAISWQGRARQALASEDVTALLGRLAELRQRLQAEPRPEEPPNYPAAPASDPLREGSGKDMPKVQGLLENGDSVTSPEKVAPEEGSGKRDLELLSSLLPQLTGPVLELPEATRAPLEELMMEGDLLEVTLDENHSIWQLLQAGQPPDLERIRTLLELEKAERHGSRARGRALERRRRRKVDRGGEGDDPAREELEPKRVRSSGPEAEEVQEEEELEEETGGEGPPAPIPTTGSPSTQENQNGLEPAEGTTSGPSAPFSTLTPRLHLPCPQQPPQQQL

[5] = molecular target: Lysine-specific demethylase 4C (Homo sapiens, UniProt Q9H3R0); assay: Inhibition of human JmjD2c using H3K27(me3) as substrate preincubated for 10 mins followed by substrate addition and measured after 7 mins in presence of alpha-KG by RapidFire Mass Spectrometry
Sequence of Lysine-specific demethylase 4C (Q9H3R0 whole entry): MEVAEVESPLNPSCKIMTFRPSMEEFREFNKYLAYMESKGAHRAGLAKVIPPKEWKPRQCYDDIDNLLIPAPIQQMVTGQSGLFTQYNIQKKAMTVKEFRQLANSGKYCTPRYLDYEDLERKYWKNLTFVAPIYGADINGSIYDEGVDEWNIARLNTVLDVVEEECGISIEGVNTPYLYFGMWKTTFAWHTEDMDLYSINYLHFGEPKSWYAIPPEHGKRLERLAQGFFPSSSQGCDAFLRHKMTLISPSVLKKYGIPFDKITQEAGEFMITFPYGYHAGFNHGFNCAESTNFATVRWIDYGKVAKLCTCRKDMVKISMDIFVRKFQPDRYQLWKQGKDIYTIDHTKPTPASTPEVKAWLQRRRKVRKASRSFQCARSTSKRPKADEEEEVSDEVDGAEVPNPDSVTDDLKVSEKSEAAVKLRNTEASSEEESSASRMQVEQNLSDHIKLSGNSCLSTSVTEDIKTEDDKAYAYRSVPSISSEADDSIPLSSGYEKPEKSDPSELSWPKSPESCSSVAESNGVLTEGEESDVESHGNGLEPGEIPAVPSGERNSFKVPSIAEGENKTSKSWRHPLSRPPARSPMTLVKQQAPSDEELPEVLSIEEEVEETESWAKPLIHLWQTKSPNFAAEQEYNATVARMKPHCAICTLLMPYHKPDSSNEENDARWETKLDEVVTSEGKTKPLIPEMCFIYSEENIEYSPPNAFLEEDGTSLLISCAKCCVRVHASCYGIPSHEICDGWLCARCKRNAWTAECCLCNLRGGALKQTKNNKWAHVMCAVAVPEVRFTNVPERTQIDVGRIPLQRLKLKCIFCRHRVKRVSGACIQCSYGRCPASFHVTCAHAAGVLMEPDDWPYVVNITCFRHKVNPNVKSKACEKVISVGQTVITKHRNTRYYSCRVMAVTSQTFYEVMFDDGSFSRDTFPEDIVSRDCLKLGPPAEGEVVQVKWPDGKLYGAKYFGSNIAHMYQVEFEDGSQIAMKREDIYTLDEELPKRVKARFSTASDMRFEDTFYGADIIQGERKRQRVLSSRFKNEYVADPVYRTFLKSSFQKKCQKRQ

[6] = molecular target: T1, Lysine-specific demethylase 4A; assay: Inhibition of human JmjD2a using H3K27(me3) as substrate preincubated for 10 mins followed by substrate addition and measured after 7 mins in presence of alpha-KG by RapidFire Mass Spectrometry
[7] = molecular target: Lysine-specific demethylase 4E (Homo sapiens, UniProt B2RXH2); assay: Inhibition of human JmjD2e using H3K27(me3) as substrate preincubated for 10 mins followed by substrate addition and measured after 7 mins in presence of alpha-KG by RapidFire Mass Spectrometry
[8] = Prodrug conversion in human primary macrophage lysates assessed as formation of GSK-J2 at 30 uM measured after 1 hr by RP LC-MS/MS analysis; type: ADME, subcellular

T1 sequence (O75164 whole entry): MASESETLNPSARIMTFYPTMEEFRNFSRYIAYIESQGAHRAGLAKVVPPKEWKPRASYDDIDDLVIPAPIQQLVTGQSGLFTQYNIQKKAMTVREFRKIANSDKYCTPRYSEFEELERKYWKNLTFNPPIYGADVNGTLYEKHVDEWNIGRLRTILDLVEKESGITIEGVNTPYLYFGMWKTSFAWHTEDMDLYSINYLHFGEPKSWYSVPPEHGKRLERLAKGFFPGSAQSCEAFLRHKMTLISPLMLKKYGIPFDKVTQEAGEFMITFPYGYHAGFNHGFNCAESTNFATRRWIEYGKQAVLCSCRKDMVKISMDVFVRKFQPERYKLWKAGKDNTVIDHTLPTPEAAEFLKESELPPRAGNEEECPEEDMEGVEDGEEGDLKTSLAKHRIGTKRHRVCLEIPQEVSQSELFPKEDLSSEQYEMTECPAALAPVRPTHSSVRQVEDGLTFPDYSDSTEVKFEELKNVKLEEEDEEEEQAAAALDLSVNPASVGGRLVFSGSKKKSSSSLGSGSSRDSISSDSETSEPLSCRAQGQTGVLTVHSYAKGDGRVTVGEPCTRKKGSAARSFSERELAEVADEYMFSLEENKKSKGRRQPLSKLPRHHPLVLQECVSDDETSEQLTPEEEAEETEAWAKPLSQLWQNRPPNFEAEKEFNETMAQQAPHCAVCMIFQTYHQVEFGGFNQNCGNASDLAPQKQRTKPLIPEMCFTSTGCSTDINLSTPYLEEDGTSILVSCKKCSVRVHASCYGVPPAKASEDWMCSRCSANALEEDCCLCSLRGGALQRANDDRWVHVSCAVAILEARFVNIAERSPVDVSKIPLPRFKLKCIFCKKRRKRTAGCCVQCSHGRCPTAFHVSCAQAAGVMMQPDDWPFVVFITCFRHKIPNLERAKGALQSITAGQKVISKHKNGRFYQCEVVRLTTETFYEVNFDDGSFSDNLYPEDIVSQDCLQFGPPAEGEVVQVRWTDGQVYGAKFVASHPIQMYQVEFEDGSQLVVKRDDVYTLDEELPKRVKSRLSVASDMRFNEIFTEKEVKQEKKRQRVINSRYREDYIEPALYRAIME

CCOC(=O)CCNc1cc(N2CCc3ccccc3CC2)nc(-c2ccccn2)n1
Drug metabolism [1]: 11.8 µM

O=C(O)CCNc1cc(N2CCc3ccccc3CC2)nc(-c2ccccn2)n1
IC50 [2]: 44.3 µM | IC50 [3]: 56 µM | IC50 [4]: > 100 µM | IC50 [5]: > 100 µM | IC50 [6]: > 100 µM

O=C(O)CCNc1cc(N2CCc3ccccc3CC2)nc(-c2cccnc2)n1
IC50 [7]: > 100 µM

CCOC(=O)CCNc1cc(N2CCc3ccccc3CC2)nc(-c2cccnc2)n1
Drug metabolism [8]: 17.4 µM
